The molecules below were run against T1, human GPR43 receptor (hGPR43) (Homo sapiens, UniProt O15552) (assay: GTPγS binding assay (SPA method)). Details: membranes expressing hGPR43; assay performed in the presence of SCFA; read-out: EC50 (nM) in GTPγ35S assay.
T1 construct: expressed in transfected cells
T1 sequence (O15552 1-330): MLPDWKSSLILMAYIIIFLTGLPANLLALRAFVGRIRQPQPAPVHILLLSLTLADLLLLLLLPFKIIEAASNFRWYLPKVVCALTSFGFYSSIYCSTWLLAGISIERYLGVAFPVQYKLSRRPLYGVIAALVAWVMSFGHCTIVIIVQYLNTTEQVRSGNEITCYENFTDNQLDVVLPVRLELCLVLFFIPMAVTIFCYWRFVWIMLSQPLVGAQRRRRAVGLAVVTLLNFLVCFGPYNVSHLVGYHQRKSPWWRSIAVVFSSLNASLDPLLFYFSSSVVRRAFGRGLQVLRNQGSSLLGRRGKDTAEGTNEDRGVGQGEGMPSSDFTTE
Type: biochemical
Description: The following assay can be used for determination of GPR43 activation. When a GPCR is in its active state, either as a result of ligand binding or constitutive activation, the receptor couples to a G protein and stimulates the release of GDP and subsequent binding of GTP to the G protein. The alpha subunit of the G protein-receptor complex acts as a GTPase and slowly hydrolyses the GTP to GDP, at which point the receptor normally is deactivated. Activated receptors continue to exchange GDP for GTP. […] The assay uses the ability of GPCR to stimulate [^35S]GTPγS binding to membranes expressing the relevant receptors. The assay can, therefore, be used in the direct identification method to screen candidate compounds to endogenous or not endogenous GPCR.
Membrane extracts were prepared from cells expressing the human GPR43 receptor (hGPR43) as follows: the medium was aspirated and the cells were scraped from the plates in Ca^++ and Mg^++-free Phosphate-buffered saline (PBS). The cells were then centrifuged for 3 min at 1500 g and the pellets were resuspended in buffer A (15 mM Tris-HCl pH 7.5, 2 mM MgCl2, 0.3 mM EDTA, 1 mM EGTA) and homogenized in a glass homogenizer. […] Protein content was assayed by the Folin method.
The assay was performed in the presence of SCFA, and was used to determine the activity of the compounds of the invention.
The [^35S]GTPγS assay was incubated in 20 mM HEPES pH7.4, 100 mM NaCl, 10 μg/ml saponin, 30 mM of MgCl2, 10 μM of GDP, 5 μg membrane-expressing hGPR43, 250 μg of wheatgerm agglutinin beads (Amersham, ref: RPNQ001), a range concentration of compounds (from 30 μM to 1 nM) in a final volume of 100 μl for 30 min at room temperature. The SCFA propionate was used at 1 mM final concentration as positive control. The plates were then centrifuged for 10 minutes at 2000 rpm, incubated for 2 hours at room temperature and counted for 1 min in a scintillation counter (TopCount, PerkinElmer).

EC50	Structure (SMILES)
361 nM	CN(C(=O)[C@@H](CC(=O)O)Cc1ccccc1)c1nc(-c2ccccc2-c2ccsc2)cs1 [Compound 107, (R)-3-benzyl-4-(methyl(4-(2-(thiophen-3-yl)phenyl)thiazol-2-yl)amino)-4-oxobutanoic acid]
305 nM	CN(C(=O)[C@@H](CC(=O)O)Cc1ccccc1)c1nc(-c2ccccc2-c2ccc(Cl)nc2)cs1 [Compound 108, (R)-3-benzyl-4-((4-(2-(6-chloropyridin-3-yl)phenyl)thiazol-2-yl)(methyl)amino)-4-oxobutanoic acid]
452 nM	Cc1ccc(CC(CC(=O)O)C(=O)N(C)c2nc(-c3ccccc3Cl)cs2)cc1 (centres unmarked) [Compound 110, 4-((4-(2-chlorophenyl)thiazol-2-yl)(methyl)amino)-3-(4-methylbenzyl)-4-oxobutanoic acid]
393 nM	CN(C(=O)[C@@H](CC(=O)O)Cc1ccccc1)c1nc(-c2ccccc2-c2ccccc2)cs1 [Compound 111, (R)-4-((4-([1,1′-biphenyl]-2-yl)thiazol-2-yl)(methyl)amino)-3-benzyl-4-oxobutanoic acid]
72 nM	CN(C)c1ccc(-c2ccccc2-c2csc(N(C)C(=O)[C@@H](CC(=O)O)Cc3ccccc3)n2)cn1 [Compound 115, (R)-3-benzyl-4-((4-(2-(6-(dimethylamino)pyridin-3-yl)phenyl)thiazol-2-yl)(methyl)amino)-4-oxobutanoic acid]
175 nM	COc1ccc(-c2ccccc2-c2csc(N(C)C(=O)[C@@H](CC(=O)O)Cc3ccccc3)n2)cn1 [Compound 116, (R)-3-benzyl-4-((4-(2-(6-methoxypyridin-3-yl)phenyl)thiazol-2-yl)(methyl)amino)-4-oxobutanoic acid]
421 nM	CN(C(=O)[C@@H](CC(=O)O)Cc1ccccc1)c1nc(-c2ccccc2-c2ccc(F)nc2)cs1 [Compound 119, (R)-3-benzyl-4-((4-(2-(6-fluoropyridin-3-yl)phenyl)thiazol-2-yl)(methyl)amino)-4-oxobutanoic acid]
858 nM	COc1ccc(-c2ccccc2-c2csc(N(C)C(=O)[C@@H](CC(=O)O)Cc3ccccc3)n2)cc1 [Compound 129, (R)-3-benzyl-4-((4-(4′-methoxy-[1,1′-biphenyl]-2-yl)thiazol-2-yl)(methyl)amino)-4-oxobutanoic acid]
96 nM	CN(C(=O)[C@@H](CC(=O)O)Cc1ccccc1)c1nc(-c2ccccc2-c2ccc(N3CCCC3)nc2)cs1 [Compound 131, (R)-1-(5-(2-(2-(2-benzyl-3-carboxy-N-methylpropanamido)thiazol-4-yl)phenyl)pyridin-2-yl)pyrrolidin-1-ium 2,2,2-trifluoroacetate]
276 nM	CN(C(=O)[C@@H](CC(=O)O)Cc1ccccc1)c1nc(-c2ccccc2-c2ccc(N3CCOCC3)cc2)cs1 [Compound 132, (R)-4-(2′-(2-(2-benzyl-3-carboxy-N-methylpropanamido)thiazol-4-yl)-[1,1′-biphenyl]-4-yl)morpholin-4-ium 2,2,2-trifluoroacetate]
241 nM	CN(C(=O)[C@@H](CC(=O)O)Cc1ccccc1)c1nc(-c2ccccc2-c2ccc(N3CCOCC3)nc2)cs1 [Compound 133, (R)-3-benzyl-4-(methyl(4-(2-(6-morpholinopyridin-3-yl)phenyl)thiazol-2-yl)amino)-4-oxobutanoic acid]
796 nM	CN(C(=O)[C@@H](CC(=O)O)Cc1ccccc1)c1nc(-c2ccccc2-c2ccoc2)cs1 [Compound 135, (R)-3-benzyl-4-((4-(2-(furan-3-yl)phenyl)thiazol-2-yl)(methyl)amino)-4-oxobutanoic acid]
996 nM	CN(C(=O)[C@@H](CC(=O)O)Cc1ccccc1)c1nc(-c2ccccc2-c2ccc(OC3CCOCC3)nc2)cs1 [Compound 141, (R)-3-benzyl-4-(methyl(4-(2-(6-((tetrahydro-2H-pyran-4-yl)oxy)pyridin-3-yl)phenyl)thiazol-2-yl)amino)-4-oxobutanoic acid]
897 nM	CN(C(=O)[C@@H](CC(=O)O)Cc1ccccc1)c1nc(-c2ccccc2C2CC2)cs1 [Compound 144, (R)-3-benzyl-4-((4-(2-cyclopropylphenyl)thiazol-2-yl)(methyl)amino)-4-oxobutanoic acid]
225 nM	CN(C(=O)[C@@H](CC(=O)O)Cc1ccccc1)c1nc(-c2ccccc2-c2ccc(Cl)cc2)cs1 [Compound 149, (R)-3-benzyl-4-((4-(4′-chloro-[1,1′-biphenyl]-2-yl)thiazol-2-yl)(methyl)amino)-4-oxobutanoic acid]
353 nM	CN(C(=O)[C@@H](CC(=O)O)Cc1ccccc1)c1nc(-c2ccccc2-c2ccc(N3CCCC3=O)nc2)cs1 [Compound 150, (R)-3-benzyl-4-(methyl(4-(2-(6-(2-oxopyrrolidin-1-yl)pyridin-3-yl)phenyl)thiazol-2-yl)amino)-4-oxobutanoic acid]
49 nM	CN(C(=O)[C@@H](CC(=O)O)Cc1ccccc1)c1nc(-c2ccccc2-c2ccc(OCc3ccccc3)nc2)cs1 [Compound 158, (R)-3-benzyl-4-((4-(2-(6-(benzyloxy)pyridin-3-yl)phenyl)thiazol-2-yl)(methyl)amino)-4-oxobutanoic acid]

More lines, now with the values behind:

Structure (SMILES)	EC50
Cc1cc(-c2csc(NC(=O)[C@@H](CC(=O)O)Cc3ccccc3)n2)c(C)s1 [Compound 102, (R)-3-benzyl-4-(4-(2,5-dimethylthiophen-3-yl)thiazol-2-ylamino)-4-oxobutanoic acid]	442 nM
CN(C(=O)C(CC(=O)O)CC1CCCCC1)c1nc(-c2ccccc2Cl)cs1 (centres unmarked) [Compound 103, 4-((4-(2-chlorophenyl)thiazol-2-yl)(methyl)amino)-3-(cyclohexylmethyl)-4-oxobutanoic acid]	137 nM
C[C@@H](c1ccccc1)[C@H](CC(=O)O)C(=O)N(C)c1nc(-c2ccccc2Cl)cs1 [Compound 106, (3S ,4R)-3-((4-(2-chlorophenyl)thiazol-2-yl)(methyl)carbamoyl)-4-phenylpentanoic acid]	216 nM
O=C(O)C[C@@H](Cc1ccccc1)C(=O)Nc1nc(-c2cc(Cl)sc2Cl)cs1 [Compound 112, (R)-3-benzyl-4-(4-(2,5-dichlorothiophen-3-yl)thiazol-2-ylamino)-4-oxobutanoic acid]	538 nM
CN(C(=O)C(CC(=O)O)CC1CC1)c1nc(-c2ccccc2Cl)cs1 (centres unmarked) [Compound 113, 4-((4-(2-chlorophenyl)thiazol-2-yl)(methyl)amino)-3-(cyclopropylmethyl)-4-oxobutanoic acid]	226 nM
CN(C(=O)C(CC(=O)O)Cc1cscn1)c1nc(-c2ccccc2Cl)cs1 (centres unmarked) [Compound 114, 4-((4-(2-chlorophenyl)thiazol-2-yl)(methyl)amino)-4-oxo-3-(thiazol-4-ylmethyl)butanoic acid]	539 nM
NC(=O)CN(C(=O)[C@@H](CC(=O)O)Cc1ccccc1)c1nc(-c2ccccc2Cl)cs1 [Compound 121, (R)-4-((2-amino-2-oxoethyl)(4-(2-chlorophenyl)thiazol-2-yl)amino)-3-benzyl-4-oxobutanoic acid]	766 nM
O=C(O)C[C@@H](Cc1ccccc1)C(=O)Nc1nc(-c2cc(Cl)ccc2Cl)cs1 [Compound 123, (R)-3-benzyl-4-((4-(2,5-dichlorophenyl)thiazol-2-yl)amino)-4-oxobutanoic acid]	134 nM
COC(=O)CCN(C(=O)[C@@H](CC(=O)O)Cc1ccccc1)c1nc(-c2ccccc2Cl)cs1 [Compound 126, (R)-3-benzyl-4-((4-(2-chlorophenyl)thiazol-2-yl)(3-methoxy-3-oxopropyl)amino)-4-oxobutanoic acid]	183 nM
CN(C(=O)C(CC(=O)O)Cc1ccco1)c1nc(-c2ccccc2Cl)cs1 (centres unmarked) [Compound 143]	77 nM
CN(C(=O)[C@@H](CC(=O)O)CC1CCCO1)c1nc(-c2ccccc2Cl)cs1 (stereo partly drawn) [Compound 154, (3R)-4-((4-(2-chlorophenyl)thiazol-2-yl)(methyl)amino)-4-oxo-3-((tetrahydrofuran-2-yl)methyl)butanoic acid]	832 nM
O=C(O)C[C@@H](Cc1ccccc1)C(=O)N(CCCO)c1nc(-c2ccccc2Cl)cs1 [Compound 156, (R)-3-benzyl-4-((4-(2-chlorophenyl)thiazol-2-yl)(3-hydroxypropyl)amino)-4-oxobutanoic acid]	867 nM
